In ChEMBL document CHEMBL1201862, “PubChem BioAssay data set” (2004):
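A five-concentration, 48-hour dose response in 96-well plates underlies each endpoint, interpolated linearly between surrounding concentrations. GI50 marks 50% less growth.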 Active and inactive are the calls of the source. Rule as the data show it: active = GI50 up to about 1.1 µM and inactive = higher.

Tests used:
Assay in all cases: growth of human tumour cells (NCI), 48 h
HCC 2998 = tested on: HCC 2998
SK-MEL-5 = tested on: SK-MEL-5
SN12C = tested on: SN12C
SNB-19 = tested on: SNB-19
LXFL 529 = tested on: LXFL 529
OVCAR-3 = tested on: OVCAR-3
SF-268 = tested on: SF-268
K562 = tested on: K562
IGROV-1 = tested on: IGROV-1
SNB-75 = tested on: SNB-75
OVCAR-8 = tested on: OVCAR-8
HOP-92 = tested on: HOP-92
COLO 205 = tested on: COLO 205
RXF 393 = tested on: RXF 393
NCI-H23 = tested on: NCI-H23
CCRF-CEM = tested on: CCRF-CEM
MDA-MB-435 = tested on: MDA-MB-435
MDA-MB-231 = tested on: MDA-MB-231
PC-3 = tested on: PC-3

SMILES | GI50 (HCC 2998) | GI50 (SK-MEL-5) | GI50 (SN12C) | GI50 (SNB-19) | GI50 (LXFL 529) | GI50 (OVCAR-3) | GI50 (SF-268) | GI50 (K562) | GI50 (IGROV-1) | GI50 (SNB-75) | GI50 (OVCAR-8) | GI50 (HOP-92) | GI50 (COLO 205) | GI50 (RXF 393) | GI50 (NCI-H23) | GI50 (CCRF-CEM) | GI50 (MDA-MB-435) | GI50 (MDA-MB-231) | GI50 (PC-3)
N#CCCN(CCC#N)c1ccc(/C=C2\N=C(c3cc([N+](=O)[O-])ccc3Cl)OC2=O)cc1 | 21.6 µM (inactive) | 16 µM (inactive) | 19.9 µM (inactive) | 25.9 µM (inactive) | 18.1 µM (inactive) | 27.8 µM (inactive) | 45.1 µM (inactive) | 18.2 µM (inactive) | > 100 µM (inactive) | 23.9 µM (inactive) | 19.1 µM (inactive) | – | – | – | – | – | – | – | –
CC1=CP(=O)(OC(C)C)C=C(C)C1=C(Cl)Cl (centres undefined) | > 100 µM (inactive) | 30.8 µM (inactive) | 36.1 µM (inactive) | > 100 µM (inactive) | 30.7 µM (inactive) | > 100 µM (inactive) | > 100 µM (inactive) | 42 µM (inactive) | > 100 µM (inactive) | > 100 µM (inactive) | 68.7 µM (inactive) | 16.9 µM (inactive) | 18.2 µM (inactive) | 66.2 µM (inactive) | 52.7 µM (inactive) | 54 µM (inactive) | – | – | –
COC(=O)c1c(O)ccc2c1c1c(n2-c2ccc(OC)cc2)C(=O)c2ccccc2C1=O | 3.62 µM (inactive) | 44.3 µM (inactive) | 28.9 µM (inactive) | 20.6 µM (inactive) | – | 22.9 µM (inactive) | 14.8 µM (inactive) | 55.2 µM (inactive) | 16.6 µM (inactive) | 23.9 µM (inactive) | 12.6 µM (inactive) | 14.8 µM (inactive) | 1.94 µM (inactive) | 13 µM (inactive) | 36.7 µM (inactive) | 15.2 µM (inactive) | 66.8 µM (inactive) | 16.5 µM (inactive) | 20.7 µM (inactive)
CC[C@@H]1CC[C@@H]2[C@H](CC[C@]3(C)[C@@H](O[N+](=O)[O-])CC[C@@H]23)[C@H]1C(C)=O | 28 µM (inactive) | 19.7 µM (inactive) | 43.3 µM (inactive) | 56.5 µM (inactive) | – | 64.1 µM (inactive) | 24.5 µM (inactive) | 34.8 µM (inactive) | 34.7 µM (inactive) | 27.6 µM (inactive) | 37.2 µM (inactive) | 21.6 µM (inactive) | 7.85 µM (inactive) | 28.2 µM (inactive) | 28.1 µM (inactive) | 32.4 µM (inactive) | 32.8 µM (inactive) | 11.8 µM (inactive) | 28.9 µM (inactive)
NC1=Nc2ccccc2Sc2nnc(-c3ccc(Cl)cc3)n21 | > 100 µM (inactive) | 68.5 µM (inactive) | 38.1 µM (inactive) | 46.8 µM (inactive) | – | > 100 µM (inactive) | 19.5 µM (inactive) | 12.2 µM (inactive) | 48.8 µM (inactive) | 17.3 µM (inactive) | 26.7 µM (inactive) | 68.2 µM (inactive) | 76.7 µM (inactive) | 22.8 µM (inactive) | > 100 µM (inactive) | 14.8 µM (inactive) | > 100 µM (inactive) | 21.5 µM (inactive) | 16.5 µM (inactive)
COC(=O)C12OC(C)(C(CC(=O)OC(C)(C)C)C1=O)C1C(=O)N(c3ccccc3)C(=O)C12 (centres undefined) | > 100 µM (inactive) | > 100 µM (inactive) | > 100 µM (inactive) | > 100 µM (inactive) | – | > 100 µM (inactive) | > 100 µM (inactive) | > 100 µM (inactive) | > 100 µM (inactive) | > 100 µM (inactive) | > 100 µM (inactive) | > 100 µM (inactive) | > 100 µM (inactive) | > 100 µM (inactive) | > 100 µM (inactive) | > 100 µM (inactive) | > 100 µM (inactive) | > 100 µM (inactive) | > 100 µM (inactive)
Cc1cc(-c2ccc(C(=O)C(c3ccccc3)(c3ccccc3)c3ccccc3)[nH]2)on1 | 11.2 µM (inactive) | 12.7 µM (inactive) | 19.1 µM (inactive) | 19 µM (inactive) | – | 22.1 µM (inactive) | 18.7 µM (inactive) | 32 µM (inactive) | 16.9 µM (inactive) | 20.4 µM (inactive) | 17.5 µM (inactive) | 16.1 µM (inactive) | 15.9 µM (inactive) | 2.2 µM (inactive) | 15 µM (inactive) | 15.5 µM (inactive) | 20.1 µM (inactive) | 19.7 µM (inactive) | 15.2 µM (inactive)
COc1cc2oc(=O)cc(C)c2cc1O | 3 µM (inactive) | > 100 µM (inactive) | > 100 µM (inactive) | > 100 µM (inactive) | – | > 100 µM (inactive) | > 100 µM (inactive) | > 100 µM (inactive) | > 100 µM (inactive) | > 100 µM (inactive) | > 100 µM (inactive) | 46.3 µM (inactive) | > 100 µM (inactive) | > 100 µM (inactive) | > 100 µM (inactive) | > 100 µM (inactive) | > 100 µM (inactive) | > 100 µM (inactive) | > 100 µM (inactive)
C[Si]1(C)C(c2ccccc2)=CC2C(c3ccccc3)(c3ccccc3)OC21c1ccccc1 (centres undefined) | > 100 µM (inactive) | 63.7 µM (inactive) | > 100 µM (inactive) | > 100 µM (inactive) | > 100 µM (inactive) | > 100 µM (inactive) | > 100 µM (inactive) | 87.7 µM (inactive) | > 100 µM (inactive) | > 100 µM (inactive) | – | 48.5 µM (inactive) | > 100 µM (inactive) | 47.5 µM (inactive) | > 100 µM (inactive) | > 100 µM (inactive) | – | – | –
O=Cc1[nH]c(=O)[nH]c(=O)c1C(=O)O | > 100 µM (inactive) | > 100 µM (inactive) | > 100 µM (inactive) | > 100 µM (inactive) | – | > 100 µM (inactive) | > 100 µM (inactive) | > 100 µM (inactive) | > 100 µM (inactive) | 43.8 µM (inactive) | > 100 µM (inactive) | > 100 µM (inactive) | > 100 µM (inactive) | > 100 µM (inactive) | > 100 µM (inactive) | > 100 µM (inactive) | > 100 µM (inactive) | > 100 µM (inactive) | > 100 µM (inactive)
CN/C(=N\N=C1/C(=O)Nc2ccccc21)SCC(=O)c1ccc(Br)cc1 | 5.26 µM (inactive) | 22.9 µM (inactive) | 12.5 µM (inactive) | 32.4 µM (inactive) | – | 7.08 µM (inactive) | 18.6 µM (inactive) | 20.5 µM (inactive) | 31.1 µM (inactive) | 8.47 µM (inactive) | 8.53 µM (inactive) | 20.7 µM (inactive) | 41.8 µM (inactive) | 5.04 µM (inactive) | 15.6 µM (inactive) | 5.46 µM (inactive) | 9.57 µM (inactive) | 5.81 µM (inactive) | 10.3 µM (inactive)
COc1ccc(-c2c3c(cc4cc5c(cc24)OCO5)C(=O)OC3)cc1OC | 2.99 µM (inactive) | 0.119 µM (active) | 0.488 µM (active) | 16.1 µM (inactive) | – | 0.885 µM (active) | 5.85 µM (inactive) | 0.69 µM (active) | 0.336 µM (active) | 6.92 µM (inactive) | 0.24 µM (active) | 0.771 µM (active) | 0.383 µM (active) | 2.9 µM (inactive) | 6.98 µM (inactive) | 4.06 µM (inactive) | 2.43 µM (inactive) | 3.02 µM (inactive) | 4.01 µM (inactive)
